# Patent publication US8258186B2, “Pharmaceutical for oral delivery comprising MGBG” (Pathologica, LLC, priority 2009, dated 2012)
# How the values were obtained:
# [1] = system: carrageenan-induced paw edema and hyperalgesia; test: Carrageenan paw test for edema and hyperalgesia; assay type: in vivo, Swiss Webster mice
# From the text: Injection of carrageenan subcutaneously into the hind foot (paw) of a rat or mouse induces robust inflammation and pain. The inflammatory response begins 1-2 hrs post-carrageenan injection and persists for at least five hours following inoculation. In addition, the animal's inflamed hind paw is sensitive to noxious (hyperaglesia) or innocuous (allodynia) stimuli, compared to the contralateral hind paw. Compounds can be evaluated in this model for anti-hyperalgesia and anti-inflammatory activity. […] It is possible that some compounds will affect the inflamed paw and not affect the responses of the contralateral paw.
# Embodiments of the carrageenan foot edema test are performed with materials, reagents and procedures essentially as described by Winter, et al., (Proc. Soc. Exp. Biol. Med., 111, 544 (1962)). Prophylactic and therapeutic embodiments have been developed, and are known in the art. The animals are evaluated for their responsiveness to noxious (paw pinch, plantar test) or innocuous (cold plate, von Frey filaments) stimuli. In the following protocol, mice were used.
# Animals, compounds, and dosing. Healthy young male Swiss Webster mice in which weight variation of the mice will not exceed ±20% of the mean were used for the study. […]
# Paw Edema. Immediately before sub-plantar administration of carrageenan and after 2, 3, 5 and 24 hours post carrageenan, mouse paw volume was measured using the plethysmometer (Ugo Basile). The assessment of edema was expressed as the mean increase in paw volume relative to control.
# Assessment of Paw Withdrawal Latency. Prior to sub-plantar administration of carrageenan and after 0.5, 2, 3, 5, and 24 hours post-carrageenan, the latency of withdrawal response was determined by placing mice on a hot plate analgesia meter with surface temperature maintained at 51° C. […] Paw withdrawal latency is calculated as Δt=right paw withdrawal−left paw withdrawal. […]
# [2] = system: carrageenan air pouch inflammation; test: Carrageenan air pouch model; assay type: in vivo, Swiss Webster mice; conditions: mice, MGBG PO BID 3, 10, 30 mg/kg/dose
# From the text: Injection of air subcutaneously will induce the formation of a connective tissue cavity lined with cells that resemble and function like a synovial lining. This method is commonly known as the Air Pouch Model and is a useful animal model of inflammation that can be generated in a relatively short period of time. The air pouch may be created by subcutaneous (SQ) injection of a volume of sterile air in the dorsal neck region. The model may be used to test the efficacy and potency of compounds such as polyamine analogues and polyamine biosynthesis inhibitors such as MGBG in reducing various cellular and biochemical indicators of inflammation when administered as an oral (PO) gavage administration.
# Animals, compounds, and dosing. Healthy male Swiss Webster mice of 7-9 weeks of age and at least 30 g in weight were used. Animals were divided into six groups of thirty. Each group was administered 6 mL of air subcutaneously as described below on days 4 and 7. […] Tolerance of test compound dosing was monitored in mice by daily visual inspections of physical and behavioral changes, such as examined changes in body posture, hair coat, activity, excreta, etc., and dosing reevaluated upon negative findings. […]
# Exudate, Plasma, and Histological Collection. The systemic exposure of the test article was evaluated as follows. Plasma samples were prepared and evaluated as follows. […]
smiles,measurement,setting,value
"CC(/C=N/NC(=N)N)=N\NC(=N)N [MGBG, 1,1′[methylethanediylidene]dinitrilodiguanidine]",reduction of edema,"[1]; mice, MGBG PO BID",efficacious
same,reduction of hyperalgesia,"[1]; mice, MGBG PO BID, hot plate paw withdrawal latency",efficacious
same,efficacy at lower doses,"[1]; murine carrageenan models, 3 mg/kg PO BID and 10 mg/kg PO BID",efficacy
same,"efficacy, changes relative to control indicative of reduced inflammation",[2],efficacious
